Here are results for 16 compounds from ChEMBL document CHEMBL3351681, “Dual-stage triterpenoids from an African medicinal plant targeting the malaria parasite” (Bioorg Med Chem, 2014).

Data set [1] has as its system Plasmodium berghei. Kind of data set: Antiplasmodial activity against GFP-expressing liver stage Plasmodium berghei sporozoites infected in human Huh7 cells preincubated for 1 hr before infection at 5 uM measured after 48 hrs post infection by firefly luciferase reporter gene assay. The class given is functional. The settings on record: Huh-7. (In general: In a reporter assay the amount or activity of a reporter protein is the signal.)

For data set [2], the system named is Plasmodium berghei. Kind of data set: Antiplasmodial activity against GFP-expressing liver stage Plasmodium berghei sporozoites infected in human Huh7 cells preincubated for 1 hr before infection at 15 uM measured after 48 hrs post infection by firefly luciferase reporter gene assay. The class given is functional. The settings on record: Huh-7.
The subject of data set [3] is Plasmodium berghei. Nature of the data set: Antiplasmodial activity against GFP-expressing liver stage Plasmodium berghei sporozoites infected in human Huh7 cells preincubated for 1 hr before infection at 1 uM measured after 48 hrs post infection by firefly luciferase reporter gene assay. The class given is functional. The settings on record: Huh-7.
The subject of data set [4] is Plasmodium berghei. Kind of data set: Antiplasmodial activity against GFP-expressing liver stage Plasmodium berghei sporozoites infected in human Huh7 cells preincubated for 1 hr before infection measured after 48 hrs post infection by firefly luciferase reporter gene assay. It counts as functional, organism-based. The settings on record: Huh-7.
Data set [5] is described as follows: Cytotoxicity against human HuH7 cells up to 15 uM after 48 hrs by Alamar Blue assay. To be noted: huh-7, 48 h. The class given is cell-based. For orientation: Resazurin is reduced to fluorescent resorufin, in cell work by metabolically active cells.

Calls of active or inactive are those of the source. No cut-off for these calls is given here.

What is called inhibition is the relative decrease from the control value, in per cent.

`CO[C@H]1C=C2[C@@H](CC[C@H](OC(C)=O)C2(C)C)[C@]2(C)CC[C@]3(C)[C@@H]([C@H](C)C[C@H](C=C(C)C)OC(C)=O)CC[C@@]3(C)[C@H]12` [KARAVOATE B] returned an inhibition at 5 µM in the data set with Plasmodium berghei [1] of 96%. In addition, the inhibition at 15 µM in the data set with Plasmodium berghei [2] is 99%. Besides, testing at 1 µM in the data set on Plasmodium berghei [3] gave an inhibition of 60%. In addition, the inhibition result in the data set on Plasmodium berghei [4] was “Dose-dependent effect”. In addition, the Activity result in data set [5] is “Non-toxic”.

Consider `CO[C@H]1C=C2[C@@H](CC[C@H](O)C2(C)C)[C@]2(C)CC[C@]3(C)[C@@H]([C@H](C)C[C@H](C=C(C)C)OC(=O)c4ccc([N+](=O)[O-])cc4)CC[C@@]3(C)[C@H]12` [KARAVOATE I], for which, in the data set with Plasmodium berghei [1], 5 µM produced 88% inhibition. The inhibition at 15 µM with Plasmodium berghei [2] is 97%. This compound had an inhibition at 1 µM in the data set on Plasmodium berghei [3] of 34%. Also, the Activity entry in data set [5] is listed as “Non-toxic”.

For `CO[C@H]1C=C2[C@@H](CC[C@H](OC(=O)c3ccc([N+](=O)[O-])cc3)C2(C)C)[C@]2(C)CC[C@]3(C)[C@@H]([C@H](C)C[C@H](C=C(C)C)OC(=O)c4ccc([N+](=O)[O-])cc4)CC[C@@]3(C)[C@H]12` [KARAVOATE J], the inhibition result with Plasmodium berghei [1], in the data set on Plasmodium berghei [2] and in the data set with Plasmodium berghei [3] was “inactive” each time. For the same compound, the Activity entry in data set [5] was “Non-toxic”.

`COc1ccc(C(=O)O[C@@H](C=C(C)C)C[C@@H](C)[C@H]2CC[C@@]3(C)[C@@H]4[C@@H](OC)C=C5[C@@H](CC[C@H](O)C5(C)C)[C@]4(C)CC[C@]23C)cc1` [KARAVOATE M] yielded an inhibition at 5 µM with Plasmodium berghei [1] of 87%. The inhibition at 15 µM with Plasmodium berghei [2] worked out at 99%. Moreover, testing at 1 µM in the data set with Plasmodium berghei [3] gave an inhibition of 14%. The Activity result in data set [5] is given as “Non-toxic”.

In turn, `CO[C@H]1C=C2[C@@H](CC[C@H](O)C2(C)C)[C@]2(C)CC[C@]3(C)[C@@H]([C@H](C)C[C@@H](O)C=C(C)C)CC[C@@]3(C)[C@H]12` [KARAVELAGENIN C] registered an inhibition at 5 µM in the data set on Plasmodium berghei [1] of 73%. In the data set on Plasmodium berghei [2], this compound displayed an inhibition at 15 µM of 99%. Further, testing at 1 µM in the data set with Plasmodium berghei [3] gave an inhibition of 27%. Further, the Activity entry in data set [5] is reported as “Non-toxic”.

In turn, `CCCC(=O)O[C@@H](C=C(C)C)C[C@@H](C)[C@H]1CC[C@@]2(C)[C@@H]3[C@@H](OC)C=C4[C@@H](CC[C@H](O)C4(C)C)[C@]3(C)CC[C@]12C` [KARAVOATE E] yielded an inhibition at 5 µM with Plasmodium berghei [1] of 89%. In the data set on Plasmodium berghei [2], this compound showed an inhibition at 15 µM of 99%. The compound also had an inhibition at 1 µM with Plasmodium berghei [3] of 39%. Besides, in data set [5], the Activity entry is on record as “Toxic”.

`CC(C)=C[C@H](O)C[C@@H](C)[C@H]1CC[C@@]2(C)[C@@H]3[C@@H](O)C=C4[C@@H](CC[C@H](O)C4(C)C)[C@]3(C)CC[C@]12C` [BALSAMINOL F] registered an inhibition at 5 µM with Plasmodium berghei [1] of 32%. Besides, the inhibition entry with Plasmodium berghei [2] and with Plasmodium berghei [3] was “Active” throughout. Besides, the Activity entry in data set [5] was “Non-toxic”.

In the data set on Plasmodium berghei [1], `CO[C@H]1C=C2[C@@H](CC[C@H](O)C2(C)C)[C@]2(C)CC[C@]3(C)[C@@H]([C@H](C)C[C@H](C=C(C)C)OC(C)=O)CC[C@@]3(C)[C@H]12` [KARAVOATE A] gave an inhibition at 5 µM of 93%. In the data set with Plasmodium berghei [3], this compound yielded an inhibition at 1 µM of 28%. For the same compound, in data set [5], the Activity entry was “Toxic”.

As for `CO[C@H]1C=C2[C@@H](CC[C@H](O)[C@]2(C)CO)[C@]2(C)CC[C@]3(C)[C@@H]([C@H](C)C[C@@H](O)C=C(C)C)CC[C@@]3(C)[C@H]12` [BALSAMINOL B], the inhibition at 5 µM in the data set on Plasmodium berghei [1] turned out to be 47%. For the same compound, the Activity result in data set [5] is “Non-toxic”.

As to `CCCC(=O)O[C@H]1CC[C@@H]2C(=C[C@H](OC)[C@@H]3[C@@]2(C)CC[C@]2(C)[C@@H]([C@H](C)C[C@H](C=C(C)C)OC(=O)CCC)CC[C@@]32C)C1(C)C` [KARAVOATE F], the inhibition at 5 µM with Plasmodium berghei [1] turned out to be 64%. This compound came in with an inhibition at 15 µM in the data set with Plasmodium berghei [2] of 82%. This compound gave an inhibition at 1 µM with Plasmodium berghei [3] of 11%. For the same compound, the Activity result in data set [5] is given as “Non-toxic”.

Consider `COc1ccc(C(=O)O[C@H]2CC[C@@H]3C(=C[C@H](OC)[C@@H]4[C@@]3(C)CC[C@]3(C)[C@@H]([C@H](C)C[C@H](C=C(C)C)OC(=O)c5ccc(OC)cc5)CC[C@@]43C)C2(C)C)cc1` [KARAVOATE N], for which the inhibition result in the data set on Plasmodium berghei [1], in the data set on Plasmodium berghei [2] and in the data set on Plasmodium berghei [3] was “inactive” each time. Further, the Activity entry in data set [5] is given as “Non-toxic”.

Turning to `COC(C)(C)/C=C/C[C@@H](C)[C@H]1CC[C@@]2(C)[C@@H]3[C@@H](O[C@H]4O[C@@H](CO)[C@H](O)[C@H](O)[C@@H]4O)C=C4[C@@H](CC[C@H](O)C4(C)C)[C@]3(C)CC[C@]12C` [BALSAMINOSIDE A], the Activity result in data set [5] is given as “Toxic”.

In turn, `CCC(=O)O[C@H]1CC[C@@H]2C(=C[C@H](OC)[C@@H]3[C@@]2(C)CC[C@]2(C)[C@@H]([C@H](C)C[C@H](C=C(C)C)OC(=O)CC)CC[C@@]32C)C1(C)C` [KARAVOATE D] showed an inhibition at 5 µM in the data set on Plasmodium berghei [1] of 82%. Moreover, the inhibition at 15 µM with Plasmodium berghei [2] turned out to be 93%. Further, the inhibition at 1 µM in the data set on Plasmodium berghei [3] was determined as 34%. Also, in data set [5], the Activity entry is given as “Non-toxic”.

As to `CC(=O)O[C@H]1C=C2[C@@H](CC[C@H](OC(C)=O)C2(C)C)[C@]2(C)CC[C@]3(C)[C@@H]([C@H](C)C[C@H](C=C(C)C)OC(C)=O)CC[C@@]3(C)[C@H]12` [TRIACETYLBALSAMINOL F], the inhibition entry with Plasmodium berghei [1], with Plasmodium berghei [2] and in the data set on Plasmodium berghei [3] was “Active” each time. In data set [5], the Activity entry is reported as “Non-toxic”.

In the data set on Plasmodium berghei [1], `CCC(=O)O[C@@H](C=C(C)C)C[C@@H](C)[C@H]1CC[C@@]2(C)[C@@H]3[C@@H](OC)C=C4[C@@H](CC[C@H](O)C4(C)C)[C@]3(C)CC[C@]12C` [KARAVOATE C] returned an inhibition at 5 µM of 60%. In the data set with Plasmodium berghei [3], this compound gave an inhibition at 1 µM of 13%. Moreover, the Activity entry in data set [5] was “Non-toxic”.

In the case of `CO[C@H]1C=C2[C@@H](CC[C@H](OC(=O)c3ccccc3)C2(C)C)[C@]2(C)CC[C@]3(C)[C@@H]([C@H](C)C[C@H](C=C(C)C)OC(=O)c4ccccc4)CC[C@@]3(C)[C@H]12` [KARAVOATE H], the inhibition entry with Plasmodium berghei [1], with Plasmodium berghei [2] and in the data set on Plasmodium berghei [3] was “inactive” throughout. In addition, the Activity entry in data set [5] is “Non-toxic”.
